From patent publication US9919066B2, “Electroporation of tissue products” (LifeCell Corporation, priority 2013, dated 2018)

How the values were obtained:
[1] = system: bacteria present on tissue samples; assay: Effect of pulse voltage on bacteria counts of porcine dermis electroporated in PAA; format: cell-based; details: 0.2% PAA; for bacteria count: 10 ms, triplicates
Procedure: (§1) To determine the impact of pulse voltage on bacteria present on tissue samples, 1 cm by 1 cm pieces of porcine dermis (1 mm thickness) were electroporated in 2 ml of 0.2% peracetic acid (PAA) at three different pulse voltages: 0V, 40V and 80V. The 0V samples were used as a control condition. Electroporation plates (1 cm by 2 cm conducting metal plates) were set 2 mm apart and a 1 mm thick piece of tissue was placed between them. Electrical pulses were delivered for 10 ms. All conditions were tested in triplicates.
Following electroporation each piece of tissue was removed and rinsed in a PAA neutralizing wash for 5 minutes and then placed in 10 ml of phosphate buffered saline (PBS). The purpose of the neutralizing wash was to prevent further bacterial kill from residual PAA following electroporation that could confound the results.
Stomaching was used to extract the bacteria from each piece of tissue and bacteria counts were performed following incubation of culture plates for 2 days at 37° C. Stomaching is a mechanical extraction method used to remove microorganisms from samples of foods, fabrics, swabs, or other soft materials such as human or animal tissue. […] The resulting compression and shearing forces elute deep-seated bacteria. Once the agitation process is completed, samples of the eluent are taken for microbial enumeration and subsequent identification.

[2] = H&E histological examination of porcine dermis after electroporation; details: 0.2% PAA
Procedure: FIG. 1A-C show hematoxylin and eosin (H&E) staining of 1 cm by 1 cm samples of porcine dermis after exposure for 15 milliseconds to one electrical pulse of 0V (FIG. 1A), 40V (FIG. 1B), or 80V (FIG. 1C), according to certain embodiments of the present disclosure.
as §1
The tissue samples exposed to 40V and 80V pulse voltages had 0 bacteria. […] Porcine dermis was also stained using hematoxylin and eosin (H&E).

[3] = system: bioburden (bacteria) on porcine dermis; assay: Effect of pulse length on bioburden of porcine dermis electroporated in PAA; format: cell-based; details: 0.2% PAA
Procedure: […] 0 ms pulses were used as a control condition. All conditions were tested in triplicates.
Electroporation plates (1 cm by 2 cm conducting metal plates) were set 2 mm apart and a 1 mm thick piece of tissue was placed between them. Pulse voltage was set at 80V. Following electroporation each piece of tissue was removed and rinsed in a PAA neutralizing wash for 5 minutes and then placed in 10 ml of PBS.
Stomaching was used to extract the bacteria from each piece of tissue and bacteria counts were performed following incubation of culture plates for 2 days at 37° C. […] Minimal bacterial colony forming units (CFU) were detected on tissue samples following 15 ms pulse.

Question: For `CC(=O)OO` [PAA, peracetic acid], which bacterial colonies ([1]; 0V (control condition, no pulse)) is on record?
Answer: too numerous to count

Question: And the bacteria count ([1]; 40V pulse)?
Answer: 0

Question: What about the bacteria count ([1]; 80V pulse) of the same compound?
Answer: 0

Question: And the “changes in the collagen structure (H&E histology)” value ([2]; exposure to 40 volts)?
Answer: no detectable change

Question: What about the “changes in the collagen structure (H&E histology)” value ([2]; exposure to 80 volts) of the same compound?
Answer: potential changes in the collagen structure

Question: What about the “Viable Cell Count” value ([3]; 80V, pulse length 1 ms, 100 pulses) of the same compound?
Answer: 430 CFU

Question: And the “Viable Cell Count” value ([3]; 80V, pulse length 5 ms, 1 pulse)?
Answer: 300 CFU

Question: What about the “Viable Cell Count” value ([3]; 80V, pulse length 10 ms, 1 pulse) of the same compound?
Answer: 140 CFU

Question: What about the “Viable Cell Count” value ([3]; pulse length 0 ms, no pulses (control condition)) of the same compound?
Answer: 26000 CFU
